Assay results from PubChem BioAssay AID2744 (NMMLSC, 2010).
The source made the active and inactive calls.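 How the source made its calls: active means fitted half-maximal concentration for changing reporter fluorescence at or below a set limit; inactive means the rest.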

Target: Citrate synthase, peroxisomal (Saccharomyces cerevisiae (strain ATCC 204508 / S288c)) (UniProt P08679)
Test: CIT2-GFP expression modulators in yeast, dose response, flow cytometry, MLPCN hits (AID 2744)
Conditions: S. cerevisiae CIT2-GFP strain, 3 h; for GFP fluorescence, higher = induction: at 33 µM (top of the series)

Citrate synthase, peroxisomal (Saccharomyces cerevisiae (strain ATCC 204508 / S288c)), sequence (P08679 whole entry, looked up): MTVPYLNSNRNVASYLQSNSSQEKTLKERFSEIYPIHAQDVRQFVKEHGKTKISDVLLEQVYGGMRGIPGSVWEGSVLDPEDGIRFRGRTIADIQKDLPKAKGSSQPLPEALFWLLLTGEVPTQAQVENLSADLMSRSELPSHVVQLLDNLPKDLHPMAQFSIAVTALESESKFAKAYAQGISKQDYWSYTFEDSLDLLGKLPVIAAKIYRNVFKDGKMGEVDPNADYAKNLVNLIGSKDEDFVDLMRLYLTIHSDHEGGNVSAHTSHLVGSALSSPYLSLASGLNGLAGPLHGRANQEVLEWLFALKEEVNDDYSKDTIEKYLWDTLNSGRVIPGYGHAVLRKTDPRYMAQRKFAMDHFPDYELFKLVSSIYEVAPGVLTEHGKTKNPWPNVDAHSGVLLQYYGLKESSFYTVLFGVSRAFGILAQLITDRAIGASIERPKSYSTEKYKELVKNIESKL

Compound	GFP fluorescence, higher = induction	EC50 (flow cytometry fluorescence) [µM]
Cc1cccc(C(=O)NNC(=S)NC(=O)c2ccccc2)c1	inactive	
CCCCCCCCn1sccc1=O	inactive	
O=c1c2cc(Cl)ccc2nc(-c2ccc([N+](=O)[O-])cc2)n1O	inactive	
COc1ccc(C=C2C(=O)c3ccccc3C2=O)cc1O	inactive	
C[C@@]12C(=O)OC(=O)[C@]1(C)C1CCC2O1	inactive	
O=C(O)c1ccc(COc2ccccc2C=C2C(=O)c3ccccc3C2=O)cc1	inactive	
C/C(=N\Nc1ncnc2sc(C)c(C)c12)c1ccccn1	inactive	
CC(C)Cn1c(=O)c(C(=O)Nc2ccncc2)c(O)c2ccccc21	inactive	
CS(=O)(=O)N1N=C(c2ccccc2)CC1c1ccc2c(c1)OCO2 (stereo not drawn)	inactive	
CC1=C/C(=N\OS(=O)(=O)c2ccccc2)C(C)=CC1=O	inactive	
N#Cc1nccnc1S(=O)(=O)c1cccs1	inactive	
CCCCC(=O)NC(=S)NNC(=O)CCc1ccccc1	inactive	
COc1cc(NC(=O)c2cccc(C)c2)ccc1NC(=O)c1cc2ccccc2o1	inactive	
CCCOc1ccc(C(=O)NNC(=S)NC(=O)c2ccco2)cc1	inactive	
O=C(c1ccc([N+](=O)[O-])o1)N1CCN(c2nc3c(F)cc(F)cc3s2)CC1	inactive	
CCCN1CCc2c(sc(NC(=S)NC(=O)c3ccccc3)c2C#N)C1	inactive	
CC(C)(C)c1cc(C(c2cccnc2)N2CCN(CCO)CC2)cc(C(C)(C)C)c1O (stereo not drawn)	inactive	
C/C(=N\NC(=O)c1cc2ccccc2cc1O)c1ccccn1	inactive	
O=c1c2cc(Br)ccc2nc(-c2ccc([N+](=O)[O-])cc2)n1O	inactive	
COC(=O)CCS(=O)(=O)c1nc(-c2ccccc2)cc(C(F)(F)F)n1	inactive	
O=C1C2C3C=CC(CO)(O3)C2C(=O)N1c1ccccc1-c1ccccc1 (stereo not drawn)	inactive	
Cc1ccc(NN2C(=O)C=C(c3ccc(Cl)cc3)C2=O)cc1	inactive	
Cc1ccc(C(c2cc(Cl)c3cccnc3c2O)N2CCN(C)CC2)cc1 (stereo not drawn)	inactive	
CCN(CC)c1ccc2cc(-c3nc(-c4ccc(OC)cc4)cs3)c(=O)oc2c1	inactive	

Compound	GFP fluorescence, higher = induction	EC50 (flow cytometry fluorescence) [µM]
O/C=c1\ccc2cccc3nc(C(F)(F)F)nc1c23	inactive	
COCCN1C(=O)/C(=C/c2ccc(N3CCCC3)cc2C)SC1=S	inactive	
O=C1c2ccccc2C(=O)N1OS(=O)(=O)c1ccc(F)cc1	inactive	
O=C(Nc1nc2ccc(F)cc2s1)c1ccccn1	inactive	
Oc1ccc(N=Nc2ccccc2)o1	inactive	
O=C(C#Cc1ccccc1)c1cccc([N+](=O)[O-])c1	inactive	
CCN(CC(=O)Nc1cc(S(=O)(=O)N2CCOCC2)ccc1Cl)Cc1ccccc1	inactive	
CC(=O)c1ccc(N2CCN(C(=O)c3ccc(Br)cc3)CC2)c(F)c1	inactive	
CCOC(=O)CCS(=O)(=O)c1nc(-c2ccccc2)cc(C(F)(F)F)n1	inactive	
Cc1ccc(/C=C2\SC(=S)N(Cc3ccccc3)C2=O)o1	inactive	
Cc1cc(=O)oc2cc(Oc3ccc([N+](=O)[O-])cc3C(F)(F)F)ccc12	inactive	
Cc1ccccc1C(=O)NNC(=S)NC(=O)c1ccc(Cl)cc1Cl	inactive	
N#C/C(=C\c1cc(Br)ccc1F)C(=O)NC1CC1	inactive	
CC[C@H](C)/C=C(C)/C=C/C1=CC2=C(Cl)C(=O)[C@@](C)(OC(C)=O)C(=O)C2=CO1	inactive	
COc1ccc(C(=O)NC(=S)NNC(=O)c2cnccn2)cc1OC	inactive	
CCOC(=O)C1=C(O)c2ccccc2C(=O)/C1=C\c1ccc(C)cc1	inactive	
COc1ccc([N+](=O)[O-])c(S(=O)(=O)c2ccc(Cl)cc2)n1	inactive	
COc1ccc(C(=O)NC(=S)NNC(=O)c2cnccn2)cc1	inactive	
C[C@@H]1C[C@@H]([C@H](O)CC2CC(=O)NC(=O)C2)C(=O)[C@@H](C)C1	inactive	
CCOc1ccc(N/N=C(/C#N)C(N)=O)cc1	inactive	
Cc1ccsc1/C=N/Nc1ncc(Cl)cc1Cl	inactive	
CCOC(=O)CSC1=NC(=O)/C(=C/c2ccc(OC)cc2)S1	inactive	
CC(C)(C)C(=O)C(Cl)C(=O)Nc1ccccc1 (stereo not drawn)	inactive	
CCCc1cc(N2CCN(c3ccccn3)CC2)n2nc(C)c(-c3ccccc3)c2n1	inactive	

Compound	GFP fluorescence, higher = induction	EC50 (flow cytometry fluorescence) [µM]
Cc1cc(O)c(C(=O)/C=C/c2ccc(Cl)cc2)c(=O)o1	inactive	
O=C1NC(=O)N(Cc2ccco2)C(=O)/C1=C/c1ccc(-c2cccc([N+](=O)[O-])c2)o1	inactive	
O=C(/C=C/c1ccccc1Cl)c1ccccc(=O)c1O	inactive	
COc1ccccc1[C@@]1(C)ON(c2ccccc2C(F)(F)F)C1=O	inactive	
CCn1c(=O)c(C(C)=O)c(O)c2ccccc21	inactive	
CC(C)CC(=O)NC(=S)Nc1nc(-c2ccccc2)cs1	inactive	
CCOc1ccc(C(Nc2cccnc2)c2cc(Cl)c3cccnc3c2O)cc1 (stereo not drawn)	inactive	
O=C1CCN(S(=O)(=O)c2ccccc2)CCN1CCOCc1ccc(F)cc1	inactive	
O=C1C=CC(=O)N1c1ccc(O)cc1	inactive	
COc1cccc(N=Cc2nc(-c3ccccc3)oc2OC(C)=O)c1	inactive	
Cc1ccc(/C=C2\SC(=S)N(CC3CCCO3)C2=O)o1 (stereo not drawn)	inactive	
Cc1ccsc1/C=C1\C(=O)NC(=S)N(C)C1=O	inactive	
CC(C)[C@]1(c2ccccc2)ON(c2ccccc2C(F)(F)F)C1=O	inactive	
O=C1N(c2ccccc2C(F)(F)F)O[C@]1(c1ccccc1)C1CCCCC1	inactive	
O=C1ON=C(c2ccc(Cl)cc2)/C1=C/c1ccc(O)cc1	inactive	
O=C1c2sc3nc4ccccc4n3c2C(=O)N1c1ccccc1Cl	inactive	
COc1ccc(NC2=C(Cl)C(=O)N(CCc3ccccc3)C2=O)cc1	inactive	
CC(=O)Nc1ncnc2c1c(-c1ccc(Cl)cc1)nn2C(C)(C)C	inactive	
Cc1[nH]c(-c2ccccn2)nc(=S)c1Cl	inactive	
Cc1ccc2nc(Cl)c3nnnn3c2c1	inactive	
Cc1ccc(S(=O)(=O)/N=C(\Sc2ccccc2)c2ccccc2)cc1	inactive	
CC(=O)N(C(C)=O)c1ncnc2c1c(-c1ccc(Cl)cc1)nn2C(C)(C)C	inactive	
N#Cc1cc([N+](=O)[O-])c(-n2nnc3ccccc32)c([N+](=O)[O-])c1	inactive	
Oc1c(C(Nc2nc3ccccc3s2)c2ccco2)ccc2cccnc12 (stereo not drawn)	inactive	

Compound	GFP fluorescence, higher = induction	EC50 (flow cytometry fluorescence) [µM]
O=C1N(c2ccccc2C(F)(F)F)O[C@]1(c1ccccc1)C1CCCC1	inactive	
COc1ccccc1[C@]1(C)ON(c2ccccc2C(F)(F)F)C1=O	inactive	
CC(C)(C)C(=O)NC(=S)NNC(=O)c1sc2ccccc2c1Cl	inactive	
COc1cc(/C=C2/C(=O)c3cccc([N+](=O)[O-])c3C2=O)c(Br)cc1O	inactive	
CCCCOc1ccc(C(=O)NNC(=S)NC(=O)CC)cc1	inactive	
Oc1ccc(COCc2ccccc2)c2cccnc12	inactive	
C=C1C(O)[C@@H]2O[C@]3(CC[C@H](/C=C/C(C)[C@@H]4CC(C)=CC5(O[C@H](C[C@@](C)(O)C(=O)O)CCC5O)O4)O3)CC[C@H]2O[C@@H]1C(O)CC(C)[C@H]1OC2(CCCCO2)CCC1C (stereo partly drawn)	inactive	
Cc1ccc(NC(=O)ON=C2CCCC2)cc1		3.79
CCN1C(=O)/C(=C\C(=O)c2cccs2)c2cc(Br)ccc21	inactive	
CCN(CC)c1ccc(/C=C2\C(=O)c3ccc(C(=O)O)cc3C2=O)cc1	inactive	
COC(=O)CCC(=O)OC1(C)C(=O)C2=COC(c3ccc(OC)cc3)=CC2=C(Br)C1=O (stereo not drawn)	inactive	
CCn1c(=O)c(C(=O)Nc2nc3ccccc3[nH]2)c(O)c2ccccc21	inactive	
COc1cc(/C=C2\C(=O)N(CCC#N)N=C2C)c(Br)cc1OC(C)C	inactive	
CC(Oc1cc2oc(=O)c3c(c2cc1Cl)CCC3)C(=O)NCCN1CCOCC1 (stereo not drawn)	inactive	
O=C(Oc1oc(-c2ccco2)nc1C=Nc1ccccc1)c1ccco1	inactive	
O=[N+]([O-])c1cc(Cl)cc(/C=N\Nc2ccccn2)c1O	inactive	
CC(=O)[C@]1(O)Cc2c(O)c3c(c(O)c2[C@@H](O[C@H]2C[C@H](N)[C@H](O)[C@H](C)O2)C1)C(=O)c1ccccc1C3=O	inactive	
Cc1cc(/C=C2/SC(=S)N(c3cccc(Cl)c3)C2=O)c(C)n1-c1cccnc1	inactive	
Cc1ccc(C(=O)Oc2oc(-c3ccco3)nc2C=Nc2ccc(Cl)cc2)cc1	inactive	
CC[C@@]1(c2ccccc2OC)ON(c2ccccc2C(F)(F)F)C1=O	inactive	
O=C(Nc1ccc(NC(=O)c2cc3ccccc3o2)cc1)c1ccco1	inactive	
